Results reported in patent US8541407B2 (ArQule, Inc., priority 2010, dated 2013).
Counter-ions that a name gives are not always drawn.

Biological target: AKT1 (Homo sapiens (Human), UniProt P31749)
Assay: Inactive Akt Alpha Screen Assay
Conditions: non *labeled: Akt Alpha Screen assay; read-out: AKT1 biochemical assay, IC50
How it was run: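 AKT1 activated in situ by PDK1, MAPKAPK2, lipid vesicles and ATP, then phosphorylating biotinylated crosstide for 30 min at room temperature. Stopped with 10 mM EDTA; phosphopeptide detected by AlphaScreen using phospho-AKT substrate antibody (1:350), Protein A acceptor and streptavidin donor beads, 90 min dark, ex 640/em 570 nm.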

Sequence of AKT1 (P31749 whole entry): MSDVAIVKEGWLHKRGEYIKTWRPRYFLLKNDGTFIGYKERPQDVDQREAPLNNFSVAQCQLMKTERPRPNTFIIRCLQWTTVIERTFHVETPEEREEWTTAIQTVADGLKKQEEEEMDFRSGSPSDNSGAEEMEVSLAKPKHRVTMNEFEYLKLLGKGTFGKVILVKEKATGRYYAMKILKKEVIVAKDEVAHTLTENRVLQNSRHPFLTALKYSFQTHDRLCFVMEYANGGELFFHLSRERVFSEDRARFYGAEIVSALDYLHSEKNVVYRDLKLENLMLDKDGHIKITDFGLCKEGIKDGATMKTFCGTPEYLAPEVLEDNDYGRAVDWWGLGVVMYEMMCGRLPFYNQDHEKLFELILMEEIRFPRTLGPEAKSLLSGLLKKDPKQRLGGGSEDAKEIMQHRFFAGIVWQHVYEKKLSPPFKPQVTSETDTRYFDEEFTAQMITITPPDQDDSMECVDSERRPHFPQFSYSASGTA

Row | Structure (SMILES) | IC50 [µM]
1 | NC1(c2ccc(-c3nnc4n3-c3cnccc3Nc3ccccc3-4)cc2)CCC1 [Example 220, 1-(4-(9H-benzo[f]pyrido[4,3-b][1,2,4]triazolo[4,3-d][1,4]diazepin-3-yl)phenyl)cyclobutanamine] | 5
2 | CC(C)CC(=O)Nc1ccc(-c2nnc3n2-c2cccnc2Nc2ccccc2-3)cc1 [Example 33, N-(4-(9H-benzo[f]pyrido[2,3-b][1,2,4]triazolo[4,3-d][1,4]diazepin-3-yl)phenyl)-3-methylbutanamide] | 0.7
3 | Cc1ccc(-c2nnc3n2-c2cccnc2Nc2ccccc2-3)cc1 [Example 6, hydrochloride] | 13
4 | Nc1cc(-c2nnc3n2-c2cccnc2Nc2ccccc2-3)ccn1 [Example 3, 4-(9H-benzo[f]pyrido[2,3-b][1,2,4]triazolo[4,3-d][1,4]diazepin-3-yl)pyridin-2-amine] | 13
5 | O=C(Nc1ccc(-c2nnc3n2-c2cccnc2Nc2ccccc2-3)cc1)c1cccnc1 [Example 40, N-(4-(9H-benzo[f]pyrido[2,3-b][1,2,4]triazolo[4,3-d][1,4]diazepin-3-yl)phenyl)nicotinamide] | 0.26
6 | CN(CCc1ccccc1)Cc1ccc(-c2nnc3n2-c2cccnc2Nc2ccccc2-3)cc1 [Example 79, N-(4-(9H-benzo[f]pyrido[2,3-b][1,2,4]triazolo[4,3-d][1,4]diazepin-3-yl)benzyl)-N-methyl-2-phenylethanamine] | 0.78
7 | O=C(Nc1ccc(-c2nnc3n2-c2cccnc2Nc2ccccc2-3)cc1)c1ccccc1F [Example 51, N-(4-(9H-benzo[f]pyrido[2,3-b][1,2,4]triazolo[4,3-d][1,4]diazepin-3-yl)phenyl)-2-fluorobenzamide] | 0.11
8 | O=c1[nH]c2ccccc2n1C1CCN(Cc2ccc(-c3nnc4n3-c3cccnc3Nc3ccccc3-4)cc2)CC1 [Example 24, 1-(1-(4-(9H-benzo[f]pyrido[2,3-b][1,2,4]triazolo[4,3-d][1,4]diazepin-3-yl)benzyl)piperidin-4-yl)-1H-benzo[d]imidazol-2(3H)-one] | 0.083
9 | O=C(Cc1cccc2ccccc12)Nc1ccc(-c2nnc3n2-c2cccnc2Nc2ccccc2-3)cc1 [Example 35, N-(4-(9H-benzo[f]pyrido[2,3-b][1,2,4]triazolo[4,3-d][1,4]diazepin-3-yl)phenyl)-2-(naphthalen-1-yl)acetamide] | 0.95
10 | O=C(c1ccc(-c2nnc3n2-c2cccnc2Nc2ccccc2-3)cc1)N1CCC(n2c(=O)[nH]c3ccccc32)CC1 [Example 26, 1-(1-(4-(9H-benzo[f]pyrido[2,3-b][1,2,4]triazolo[4,3-d][1,4]diazepin-3-yl)benzoyl)piperidin-4-yl)-1H-benzo[d]imidazol-2(3H)-one] | 0.8
11 | CC(C)CN(C)Cc1ccc(-c2nnc3n2-c2cccnc2Nc2ccccc2-3)cc1 [Example 85, N-(4-(9H-benzo[f]pyrido[2,3-b][1,2,4]triazolo[4,3-d][1,4]diazepin-3-yl)benzyl)-N,2-dimethylpropan-1-amine] | 7.1
12 | NC1(c2ccc(-c3nnc4n3-c3cccnc3Nc3ccccc3-4)cc2)CC1 [Example 222, 1-(4-(9H-benzo[f]pyrido[2,3-b][1,2,4]triazolo[4,3-d][1,4]diazepin-3-yl)phenyl)cyclopropanamine] | 0.14
13 | O=C(Cc1ccccc1)N1CCN(Cc2ccc(-c3nnc4n3-c3cccnc3Nc3ccccc3-4)cc2)CC1 [Example 140, 1-(4-(4-(9H-benzo[f]pyrido[2,3-b][1,2,4]triazolo[4,3-d][1,4]diazepin-3-yl)benzyl)piperazin-1-yl)-2-phenylethanone] | 6
14 | CCC(=O)Nc1ccc(-c2nnc3n2-c2cccnc2Nc2ccccc2-3)cc1 [Example 39, N-(4-(9H-benzo[f]pyrido[2,3-b][1,2,4]triazolo[4,3-d][1,4]diazepin-3-yl)phenyl)propionamide] | 1.8
15 | Cc1cc(COCc2ccc(-c3nnc4n3-c3cccnc3Nc3ccccc3-4)cc2)no1 [Example 185, 3-(((4-(9H-benzo[f]pyrido[2,3-b][1,2,4]triazolo[4,3-d][1,4]diazepin-3-yl)benzyl)oxy)methyl)-5-methylisoxazole] | 2.1
16 | Cc1ccc2c(c1)-c1nnc(-c3ccc(C4(N)CCC4)cc3)n1-c1cccnc1N2 [Example 216, 1-(4-(12-methyl-9H-benzo[f]pyrido[2,3-b][1,2,4]triazolo[4,3-d][1,4]diazepin-3-yl)phenyl)cyclobutanamine] | 0.96

Continued, values first:

Row | IC50 [µM] | Structure (SMILES)
17 | 5.2 | c1ccc2c(c1)Nc1ncccc1-n1c(-c3ccc(CN4CCN(Cc5ccncc5)CC4)cc3)nnc1-2 [Example 74, 3-(4-((4-(pyridin-4-ylmethyl)piperazin-1-yl)methyl)phenyl)-9H-benzo[f]pyrido[2,3-b][1,2,4]triazolo[4,3-d][1,4]diazepine]
18 | 0.41 | Cc1noc(C2CCCN(Cc3ccc(-c4nnc5n4-c4cccnc4Nc4ccccc4-5)cc3)C2)n1 (stereo not shown) [Example 190, 5-(1-(4-(9H-benzo[f]pyrido[2,3-b][1,2,4]triazolo[4,3-d][1,4]diazepin-3-yl)benzyl)piperidin-3-yl)-3-methyl-1,2,4-oxadiazole]
19 | 1.7 | N#Cc1ccc(C(=O)NC2CCN(Cc3ccc(-c4nnc5n4-c4cccnc4Nc4ccccc4-5)cc3)CC2)cc1 [Example 130, N-(1-(4-(9H-benzo[f]pyrido[2,3-b][1,2,4]triazolo[4,3-d][1,4]diazepin-3-yl)benzyl)piperidin-4-yl)-4-cyanobenzamide]
20 | 1.9 | CC(C)(C)OC(=O)NC1CCN(Cc2ccc(-c3nnc4n3-c3cccnc3Nc3ccccc3-4)cc2)CC1 [Example 201, tert-butyl (1-(4-(9H-benzo[f]pyrido[2,3-b][1,2,4]triazolo[4,3-d][1,4]diazepin-3-yl)benzyl)piperidin-4-yl)carbamate]
21 | 3.4 | CC(=O)c1ccc(S(=O)(=O)NC2CCN(Cc3ccc(-c4nnc5n4-c4cccnc4Nc4ccccc4-5)cc3)CC2)cc1 [Example 155, N-(1-(4-(9H-benzo[f]pyrido[2,3-b][1,2,4]triazolo[4,3-d][1,4]diazepin-3-yl)benzyl)piperidin-4-yl)-4-acetylbenzenesulfonamide]
22 | 0.84 | COc1ccc(NC(=O)NC2CCN(Cc3ccc(-c4nnc5n4-c4cccnc4Nc4ccccc4-5)cc3)CC2)c(C)c1 [Example 184, 1-(1-(4-(9H-benzo[f]pyrido[2,3-b][1,2,4]triazolo[4,3-d][1,4]diazepin-3-yl)benzyl)piperidin-4-yl)-3-(4-methoxy-2-methylphenyl)urea]
23 | 4.7 | COCCN(C)Cc1ccc(-c2nnc3n2-c2cccnc2Nc2ccccc2-3)cc1 [Example 77, N-(4-(9H-benzo[f]pyrido[2,3-b][1,2,4]triazolo[4,3-d][1,4]diazepin-3-yl)benzyl)-2-methoxy-N-methylethanamine]
24 | 0.79 | COC(=O)c1sccc1S(=O)(=O)NC1CCN(Cc2ccc(-c3nnc4n3-c3cccnc3Nc3ccccc3-4)cc2)CC1 [Example 145, methyl 3-(N-(1-(4-(9H-benzo[f]pyrido[2,3-b][1,2,4]triazolo[4,3-d][1,4]diazepin-3-yl)benzyl)piperidin-4-yl)sulfamoyl)thiophene-2-carboxylate]
25 | 3.4 | O=C(C1CCCC1)N1CCN(Cc2ccc(-c3nnc4n3-c3cccnc3Nc3ccccc3-4)cc2)CC1 [Example 133, (4-(4-(9H-benzo[f]pyrido[2,3-b][1,2,4]triazolo[4,3-d][1,4]diazepin-3-yl)benzyl)piperazin-1-yl)(cyclopentyl)methanone]
26 | 4.2 | O=C(c1ccccn1)N1CCN(Cc2ccc(-c3nnc4n3-c3cccnc3Nc3ccccc3-4)cc2)CC1 [Example 161, (4-(4-(9H-benzo[f]pyrido[2,3-b][1,2,4]triazolo[4,3-d][1,4]diazepin-3-yl)benzyl)piperazin-1-yl)(pyridin-2-yl)methanone]
27 | 1.2 | O=C(NCc1ccc(-c2nnc3n2-c2cccnc2Nc2ccccc2-3)cc1)Nc1ccc(F)cc1 [Example 124, 1-(4-(9H-benzo[f]pyrido[2,3-b][1,2,4]triazolo[4,3-d][1,4]diazepin-3-yl)benzyl)-3-(4-fluorophenyl)urea]
28 | 0.22 | O=S(=O)(NCc1ccc(-c2nnc3n2-c2cccnc2Nc2ccccc2-3)cc1)c1cccnc1 [Example 105, N-(4-(9H-benzo[f]pyrido[2,3-b][1,2,4]triazolo[4,3-d][1,4]diazepin-3-yl)benzyl)pyridine-3-sulfonamide]
29 | 6.8 | Cc1noc(C)c1S(=O)(=O)NC1CCN(Cc2ccc(-c3nnc4n3-c3cccnc3Nc3ccccc3-4)cc2)CC1 [Example 146, N-(1-(4-(9H-benzo[f]pyrido[2,3-b][1,2,4]triazolo[4,3-d][1,4]diazepin-3-yl)benzyl)piperidin-4-yl)-3,5-dimethylisoxazole-4-sulfonamide]
30 | 5.5 | CN1CCC(N(C)Cc2ccc(-c3nnc4n3-c3cccnc3Nc3ccccc3-4)cc2)CC1 [Example 88, N-(4-(9H-benzo[f]pyrido[2,3-b][1,2,4]triazolo[4,3-d][1,4]diazepin-3-yl)benzyl)-N,1-dimethylpiperidin-4-amine]
31 | 5.8 | O=S(=O)(NCCc1ccc(-c2nnc3n2-c2cccnc2Nc2ccccc2-3)cc1)c1ccccc1 [Example 108, N-(4-(9H-benzo[f]pyrido[2,3-b][1,2,4]triazolo[4,3-d][1,4]diazepin-3-yl)phenethyl)benzenesulfonamide]
32 | 0.69 | NCc1ccc(-c2nnc3n2-c2cccnc2Nc2ccccc2-3)cc1 [Example 62, (4-(9H-benzo[f]pyrido[2,3-b][1,2,4]triazolo[4,3-d][1,4]diazepin-3-yl)phenyl)methanamine]
33 | 0.49 | CS(=O)(=O)OCc1ccc(-c2nnc3n2-c2cccnc2Nc2ccccc2-3)cc1 [Example 64, 4-(9H-benzo[f]pyrido[2,3-b][1,2,4]triazolo[4,3-d][1,4]diazepin-3-yl)benzyl methanesulfonate]
34 | 2.9 | Cc1cc(C(=O)N2CCN(Cc3ccc(-c4nnc5n4-c4cccnc4Nc4ccccc4-5)cc3)CC2)no1 [Example 142, (4-(4-(9H-benzo[f]pyrido[2,3-b][1,2,4]triazolo[4,3-d][1,4]diazepin-3-yl)benzyl)piperazin-1-yl)(5-methylisoxazol-3-yl)methanone]
